# Assay results published in article PMC10683025, “Discovery of a Hydroxylamine-Based Brain-Penetrant EGFR Inhibitor for Metastatic Non-Small-Cell Lung Cancer” (Journal of Medicinal Chemistry, 2023).
# Like-named read-outs stand apart in the source and are kept apart here.
# Legend:
# Plasma stability [1] = type: in vitro ADME, Sprague-Dawley rat; details: for Remaining Percentages / t1/2: rat plasma; for t1/2: ∞ = no degradation
# How it was run: (§1)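 Compound at 5 μM incubated in human and Sprague-Dawley rat plasma, duplicates; samples at 0, 15, 30, 60 and 120 min analysed by LC-MS/MS. Percent remaining at each time from compound/control peak area ratio relative to the 0 min ratio.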
# [2] = Metabolic stability in liver microsomes; type: in vitro ADME, Sprague-Dawley rat; details: for half-life at 1 h, 1 µM / microsomal CLint at 1 h, 1 µM: Sprague-Dawley, rat, liver microsomes; for half-life at 1 h, 1 µM: read-out: LM t1/2; for microsomal CLint at 1 h, 1 µM: read-out: LMClint; for Remaining Percentage: rat LM
# Description: Microsome stability was assessed in duplicate (n = 2) in the presence and absence of nicotinamide adenine dinucleotide phosphate (NADPH) with liver microsomes (0.5 mg/mL) from human (BD Gentest) and Sprague-Dawley rats (BD Gentest). Compounds were incubated in liver microsomes at 1 μM and samples (30 μL) were taken at 0.5, 15, 30, 45, and 60 min time points for analysis by LC-MS/MS. Hepatocyte stability was assessed in duplicate (n = 2) at a working cell density of 0.5 × 10^6 cells/mL with hepatocytes from human (BiolVT), Sprague-Dawley rat (BiolVT), cynomolgus monkey (RILD) or beagle dog (BiolVT). […] The in vitro half-life and intrinsic clearances were determined as previously described.[76]
# In vitro half-life (in vitro t1/2) was determined from the slope value in [drawing 1] where k was determined by linear regression of the natural logarithm of the remaining percentage of the parent drug vs the incubation time curve.
# Plasma stability [3] = type: in vitro ADME, human; details: for Remaining Percentages / t1/2: human plasma; for t1/2: ∞ = no degradation
# How it was run: as §1
# [4] = Lipophilicity, shake-flask; type: physicochemical; details: 1-octanol/PBS; 1-octanol and PBS (pH 7.4); read-out: logD7.4
# Description: Compound lipophilicity was determined by Pharmaron, Inc. using the shake-flask method with 1-octanol and PBS (pH 7.4). Each compound was assessed in duplicate (n = 2) at 1 μM in a 96-well plate shaken at 25 °C and 2000 rpm for 2 h. Samples were analyzed by liquid chromatography and tandem mass spectrometry (LC-MS/MS).
# EGFRwt [5] = target: T1, EGFRwt (Homo sapiens, UniProt P00533); assay: KINOMEScan KdELECT Kd determination; type: binding; details: wt; read-out: EGFR Kd
# T1 construct: purchased Eurofins DiscoverX (contract assay)
# T1 sequence (P00533 25-1210): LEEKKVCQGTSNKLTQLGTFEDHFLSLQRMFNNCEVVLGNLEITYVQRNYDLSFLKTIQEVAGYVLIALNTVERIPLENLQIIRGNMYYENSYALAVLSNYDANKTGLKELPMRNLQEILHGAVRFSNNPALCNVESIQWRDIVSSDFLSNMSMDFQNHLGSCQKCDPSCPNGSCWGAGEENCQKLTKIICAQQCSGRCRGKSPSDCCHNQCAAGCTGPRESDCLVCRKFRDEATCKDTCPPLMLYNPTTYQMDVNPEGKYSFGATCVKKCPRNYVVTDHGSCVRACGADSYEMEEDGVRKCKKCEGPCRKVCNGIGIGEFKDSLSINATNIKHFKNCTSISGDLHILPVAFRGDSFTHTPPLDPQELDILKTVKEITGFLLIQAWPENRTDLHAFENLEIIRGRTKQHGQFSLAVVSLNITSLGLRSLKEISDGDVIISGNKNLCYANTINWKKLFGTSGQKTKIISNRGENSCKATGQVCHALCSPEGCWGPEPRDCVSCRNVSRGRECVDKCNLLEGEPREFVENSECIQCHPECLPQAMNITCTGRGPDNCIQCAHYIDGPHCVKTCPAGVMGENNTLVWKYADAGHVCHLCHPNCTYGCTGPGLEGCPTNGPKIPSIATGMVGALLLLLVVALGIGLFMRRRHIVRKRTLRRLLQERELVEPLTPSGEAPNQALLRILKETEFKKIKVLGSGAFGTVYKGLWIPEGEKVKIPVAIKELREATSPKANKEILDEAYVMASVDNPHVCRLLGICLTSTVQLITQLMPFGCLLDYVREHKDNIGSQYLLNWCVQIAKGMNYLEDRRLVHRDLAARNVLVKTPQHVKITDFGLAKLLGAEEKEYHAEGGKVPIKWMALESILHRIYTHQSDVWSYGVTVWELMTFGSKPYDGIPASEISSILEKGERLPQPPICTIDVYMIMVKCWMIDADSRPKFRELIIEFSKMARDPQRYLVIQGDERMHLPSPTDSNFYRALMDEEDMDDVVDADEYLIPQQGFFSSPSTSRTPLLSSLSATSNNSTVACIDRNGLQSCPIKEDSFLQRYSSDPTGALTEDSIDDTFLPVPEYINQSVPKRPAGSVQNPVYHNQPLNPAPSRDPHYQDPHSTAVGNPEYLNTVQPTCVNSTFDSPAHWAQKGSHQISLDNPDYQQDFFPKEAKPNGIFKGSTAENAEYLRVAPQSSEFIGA
# Description: (§2) In vitro kinase activity (inhibitor binding constants (Kd) and biochemical inhibition (IC50’s)) were assessed by Eurofins DiscoverX (Kd determinations) and Eurofins Cerep (biochemical IC50 determinations).
# [6] = Plasma protein binding by equilibrium dialysis; type: in vitro ADME, mouse
# Description: Plasma protein binding and brain tissue binding were determined by Pharmaron, Inc. using the equilibrium dialysis method. […] Following incubation, the samples were analyzed by LC-MS/MS and the concentrations of the compounds were determined in the buffer and plasma solution chambers.
# EGFRwt [7] = target: T1, EGFRwt; assay: KinaseProfiler enzymatic radiometric assay; type: biochemical; details: wt, ATP 10 μM; read-out: EGFR IC50
# Description: as §2
# Solubility assay = type: physicochemical; details: buffer; for solubility at 2 h: read-out: Aq. Solubility; for solubility kinetic at 2 h: pH 7.4, aqueous buffer, read-out: Aq. Sol.
# Description: Solubility was determined by Pharmaron, Inc. and each compound was assessed in duplicate (n = 2) by adding 15 μL of compound stock solution (10 mM in DMSO) into a 96-well plate along with 485 μL of buffer followed by shaking at 25 °C, 1100 rpm for 2 h. Wells were filtered, and samples (5 μL) were taken followed by dilution with an equal volume of DMSO (5 μL) and 490 μL of aqueous solution. Samples were analyzed by LC-MS/MS.
# Pharmacokinetic study = type: in vivo, Sprague-Dawley rats
# Description: Animal experiments were performed at Pharmaron, Inc. and animal use was approved by Pharmaron’s Institutional Animal Care and Use Committee (IACUC) in Pharmaron (Pharmaron IACUC, Protocol #PK-M-07182022, #PK-R-06012022, and #ON-CELL-XEN-06012022) following the guidance of AAALAC. Six- to eight-week-old male Sprague-Dawley rats (approximately 200–300 g) obtained from Si Bei Fu Laboratory Animal Technology Co., six- to eight-week-old male CD1 mice (approximately 20–30 g) obtained from Si Bei Fu Laboratory Animal Technology Co., and six- to eight-week-old female BALB/c nude mice (approximately 20–30 g) obtained from Si Bei Fu Laboratory Animal Technology Co., were used in the pharmacokinetic studies. Six- to eight-week-old female BALB/c nude mice (approximately 18–22 g) obtained from Beijing Anikeeper Biotech Co., Ltd. were used in the intracranial PDX study. Animals were housed at 20–25 °C with humidity ranging from 40 to 70% relative humidity, were exposed to 12 h light and dark cycles, and were supplied with food and water ab libitum.
# Approximately 0.03 mL of blood was collected from the dorsal metatarsal vein (in the case of CD1 mice), 0.03 mL of blood from the orbit vein (in the case of BALB/c nude mice), or 0.2 mL of blood from the jugular vein (in the case of Sprague-Dawley rats) at each time point. Blood at each sampling point was transferred into a plastic micro centrifuge tube containing K2-EDTA, and collection tubes with blood samples and anticoagulant were inverted several times for proper mixing of the tube contents and placed on ice prior to centrifugation for plasma. Blood samples were centrifuged at 4 °C, 4000g for 5 min to obtain plasma. Samples were stored in a freezer at −75 °C prior to analysis. Concentrations of test articles in the plasma samples were determined using LC-MS/MS and WinNonlin 8.3 (Phoenix) was used for pharmacokinetic calculations. The values obtained were plotted on GraphPad Prism software and are presented as mean ± SD.
# EGFRL858R = EGFRL858R (Homo sapiens, UniProt P00533, L858R); assay: KinaseProfiler enzymatic radiometric assay; type: biochemical; set-up: purchased Eurofins Cerep (KinaseProfiler, contract assay); details: ATP 10 μM, read-out: EGFR IC50
# Chain of EGFRL858R (P00533 25-1210 L858R): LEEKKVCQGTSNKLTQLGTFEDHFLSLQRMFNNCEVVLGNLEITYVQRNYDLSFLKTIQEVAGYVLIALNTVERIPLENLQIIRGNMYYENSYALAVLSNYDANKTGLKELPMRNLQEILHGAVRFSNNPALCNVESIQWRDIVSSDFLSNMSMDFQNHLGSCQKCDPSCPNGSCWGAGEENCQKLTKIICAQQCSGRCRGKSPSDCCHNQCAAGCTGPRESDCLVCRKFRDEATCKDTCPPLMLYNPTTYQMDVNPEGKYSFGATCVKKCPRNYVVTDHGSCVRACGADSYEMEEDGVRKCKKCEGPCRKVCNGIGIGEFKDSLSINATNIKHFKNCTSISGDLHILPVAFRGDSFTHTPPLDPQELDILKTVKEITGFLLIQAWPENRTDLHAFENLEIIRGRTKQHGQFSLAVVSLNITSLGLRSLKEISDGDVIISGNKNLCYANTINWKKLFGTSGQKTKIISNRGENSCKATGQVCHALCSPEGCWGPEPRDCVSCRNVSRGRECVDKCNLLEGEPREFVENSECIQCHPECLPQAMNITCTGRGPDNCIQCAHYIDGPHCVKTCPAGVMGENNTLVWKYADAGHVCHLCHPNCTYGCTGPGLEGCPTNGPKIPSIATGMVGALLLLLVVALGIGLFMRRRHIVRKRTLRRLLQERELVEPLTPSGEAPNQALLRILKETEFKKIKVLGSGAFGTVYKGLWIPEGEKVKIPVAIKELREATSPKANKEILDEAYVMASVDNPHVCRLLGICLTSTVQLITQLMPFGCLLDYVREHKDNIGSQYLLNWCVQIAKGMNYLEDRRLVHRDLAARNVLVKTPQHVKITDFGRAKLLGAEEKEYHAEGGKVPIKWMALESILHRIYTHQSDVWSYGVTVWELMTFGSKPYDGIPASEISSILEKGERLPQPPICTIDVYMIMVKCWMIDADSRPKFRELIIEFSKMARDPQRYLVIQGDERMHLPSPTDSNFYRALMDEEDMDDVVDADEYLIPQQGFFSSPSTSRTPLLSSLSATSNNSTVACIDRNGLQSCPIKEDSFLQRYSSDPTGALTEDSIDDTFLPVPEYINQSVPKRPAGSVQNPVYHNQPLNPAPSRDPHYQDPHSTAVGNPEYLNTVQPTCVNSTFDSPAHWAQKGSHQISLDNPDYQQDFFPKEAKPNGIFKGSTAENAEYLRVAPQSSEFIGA
# Description: as §2
# [8] = CD-1, mouse, mouse plasma, read-out: %Bound (converted)
# [9] = CD-1, plasma, mouse, 5 μM, read-out: fu,plasma% / %Unbound
# [10] = male, Sprague-Dawley, plasma, Rat 2 mg/kg (IV)
# [11] = male, Sprague-Dawley, plasma, Rat 20 mg/kg (PO)
# [12] = male, Sprague-Dawley, plasma, rat, 1 mg/kg IV and 5 mg/kg PO dosing (route of value not stated)
structure (smiles),measurement,setting,value
"COc1cc2ncnc(Nc3cccc(Cl)c3F)c2cc1OCCON1CCN(C)CC1 [Compound 9, N-(3-Chloro-2-fluorophenyl)-7-methoxy-6-(2-((4-methylpiperazin-1-yl)oxy)ethoxy)quinazolin-4-amine]",remaining at 5 μM,"Plasma stability [1]; Sprague-Dawley, rat, plasma",> 90%
same,Remaining Percentages,Plasma stability [1]; 15 min,96.53%
same,Remaining Percentages,Plasma stability [1]; 30 min,95.56%
same,Remaining Percentages,Plasma stability [1]; 60 min,99.37%
same,Remaining Percentages,Plasma stability [1]; 120 min,96.60%
same,t1/2,Plasma stability [1],∞
same,"half-life at 1 h, 1 µM",[2],9.5 min
same,"microsomal CLint at 1 h, 1 µM",[2],146 µL/min/mg
same,Remaining Percentage,"[2]; +Cofactors, 15 min",34.07%
same,Remaining Percentage,"[2]; +Cofactors, 30 min",11.66%
same,Remaining Percentage,"[2]; +Cofactors, 45 min",6.01%
same,Remaining Percentage,"[2]; +Cofactors, 60 min",2.50%
same,Remaining Percentage,"[2]; -Cofactors, 60 min",113.38%
same,Remaining Percentages,Plasma stability [3]; 15 min,93.43%
same,Remaining Percentages,Plasma stability [3]; 30 min,92.26%
same,Remaining Percentages,Plasma stability [3]; 60 min,97.47%
same,Remaining Percentages,Plasma stability [3]; 120 min,92.38%
same,t1/2,Plasma stability [3],∞
same,remaining at 5 μM,"Plasma stability [3]; human, plasma",> 90%
same,"logD at 2 h, 1 µM",[4],2.8
same,Kd,EGFRwt [5],< 0.2 nM
same,"recovery at 6 h, 5 μM","[6]; CD-1, mouse, mouse plasma",95.4%
same,"remaining at 6 h, 5 μM","[6]; CD-1, mouse, mouse plasma",92.9%
same,"fraction unbound at 6 h, 5 μM",[6]; [8],0.0702
same,"fraction unbound at 6 h, 5 µM",[6]; [9],0.07
same,"fraction unbound at 6 h, 5 μM",[6]; [9],0.0702
same,IC50,EGFRwt [7],3 nM
same,solubility at 2 h,Solubility assay; pH 1.2,> 300 µM
same,solubility at 2 h,Solubility assay; pH 6.8,262 µM
same,solubility kinetic at 2 h,Solubility assay,199 µM
same,adverse events or signs of toxicity,Pharmacokinetic study; Sprague-Dawley rats at the tested PK doses,No adverse events or signs of toxicity were observed
same,clearance at 24 h,Pharmacokinetic study; [10],59.6 ± 22.2 mL/min/kg
same,half-life at 24 h,Pharmacokinetic study; [10],144 ± 64.2 min
same,Vd at 24 h,"Pharmacokinetic study; male, Sprague-Dawley, plasma, Rat 2 mg/kg (IV), read-out: Vss",6.67 L/kg
same,Cmax at 24 h,Pharmacokinetic study; [11],653 ± 106 nM
same,Tmax at 24 h,Pharmacokinetic study; [11],2 h
same,bioavailability at 24 h,Pharmacokinetic study; [11],64%
same,half-life at 24 h,Pharmacokinetic study; [11],142 min
same,AUC(0-inf) at 24 h,Pharmacokinetic study; [12],279 ng·h/mL
same,half-life at 24 h,Pharmacokinetic study; [12],137 min
same,AUC(0-inf),"Pharmacokinetic study; male, Sprague-Dawley, plasma, rat, 20 mg/kg PO",3910 ng·h/mL
same,IC50,EGFRL858R,2 nM
"COc1cc2ncnc(Nc3cccc(Cl)c3F)c2cc1OCCON1CCOCC1 [Compound 7, N-(3-Chloro-2-fluorophenyl)-7-methoxy-6-(2-(morpholinooxy)ethoxy)quinazolin-4-amine]",Remaining Percentages,Plasma stability [1]; 15 min,91.34%
same,Remaining Percentages,Plasma stability [1]; 30 min,93.84%
same,Remaining Percentages,Plasma stability [1]; 60 min,93.29%
same,Remaining Percentages,Plasma stability [1]; 120 min,95.67%
same,t1/2,Plasma stability [1],∞
same,"half-life at 1 h, 1 µM",[2],10 min
same,"microsomal CLint at 1 h, 1 µM",[2],138 µL/min/mg
same,Remaining Percentage,"[2]; +Cofactors, 15 min",28.79%
same,Remaining Percentage,"[2]; +Cofactors, 30 min",12.97%
same,Remaining Percentage,"[2]; +Cofactors, 45 min",8.49%
same,Remaining Percentage,"[2]; +Cofactors, 60 min",5.84%
same,Remaining Percentage,"[2]; -Cofactors, 60 min",118.60%
same,Remaining Percentages,Plasma stability [3]; 15 min,100.68%
same,Remaining Percentages,Plasma stability [3]; 30 min,93.61%
same,Remaining Percentages,Plasma stability [3]; 60 min,100.91%
same,Remaining Percentages,Plasma stability [3]; 120 min,97.91%
same,t1/2,Plasma stability [3],∞
same,"logD at 2 h, 1 µM",[4],3.4
same,Kd,EGFRwt [5],< 0.2 nM
same,"recovery at 6 h, 5 μM","[6]; CD-1, mouse, mouse plasma",98.4%
same,"remaining at 6 h, 5 μM","[6]; CD-1, mouse, mouse plasma",102%
same,"fraction unbound at 6 h, 5 μM",[6]; [8],0.0665
same,"fraction unbound at 6 h, 5 μM",[6]; [9],0.0665
same,IC50,EGFRwt [7],3 nM
same,solubility kinetic at 2 h,Solubility assay,36 µM
same,AUC(0-inf) at 24 h,Pharmacokinetic study; [12],89 ng·h/mL
same,half-life at 24 h,Pharmacokinetic study; [12],33.6 min
same,IC50,EGFRL858R,1 nM
